Measurements reported in US20130210039A1, “BLOOD INSULIN RESISTANCE AND DIABETES MARKER PROGRANULIN, METHOD FOR ANALYZING CONCENTRATION OF PROGRANULIN IN BLOOD SAMPLE, AND METHOD FOR SCREENING FOR SUBSTANCE THAT IMPROVES INSULIN RESISTANCE AND IMPROVES OR SUPPRESSES DIABETES” (priority 2010, published 2013).

Assays:
progranulin (PGRN) mRNA = experiment: Progranulin mRNA expression in adipose tissues of ob/ob mice orally administered pioglitazone; type: in vivo; conditions: ten-week-old ob/ob mice, 30 mg/kg orally every day for 1 week, mean±S.D.
Procedure: Adipose tissues (mesenteric fat tissue (MF), epididymal fat tissue (EF), and subcutaneous adipose tissue (SC)) were extracted from seven-week-old ob/ob mice and ob/+ mice and subjected to real-time PCR analysis to determine the expression levels of mRNA for progranulin (PGRN).
(§1) Ten-week-old ob/ob mice were orally administered with 30 mg/kg of a thiazolidine derivative (pioglitazone) every day for 1 week. An oral glucose tolerance test (OGTT) was performed on these mice and a control group (Vehicle) administered with only a solvent (10% (w/v) carboxymethyl cellulose).
In FIG. 8, the horizontal axis represents the type of adipose tissue (epididymal fat tissue (EF), mesenteric fat tissue (MF), subcutaneous adipose tissue (SC) (white adipose tissue (WAT) and brown adipose tissue (BAT)), the vertical axis represents the relative expression level of progranulin mRNA (relative PRGN mRNA expression), “Vehicle” represents the control group, and “Pio” represents the pioglitazone administration group.

progranulin (PGRN) = experiment: Serum progranulin concentration in ob/ob mice orally administered pioglitazone (ELISA); type: in vivo; conditions: ten-week-old ob/ob mice, 30 mg/kg orally every day for 1 week; mean±S.D., n=5; p<0.05 vs Vehicle (2.57±0.28)
Procedure: Blood samples were collected from seven-week-old ob/ob mice and ob/+ mice, allowed to stand at room temperature, and centrifuged to prepare serum samples. Serum progranulin concentrations were measured by ELISA.
as §1
In FIG. 9, the horizontal axis represents the type of group to be measured (pioglitazone administration group (Pio), control group (Vehicle), and ob/+ mice) and the vertical axis represents the serum progranulin concentration (Serum PGRN conc.) (μg/mL).

cultured adipocytes = cultured adipocytes treated with the substance alone; cited from earlier work
Akt protein = conditions: cultured adipose cells treated with progranulin protein, under insulin stimulation; cited from earlier work

CCc1ccc(CCOc2ccc(CC3SC(=O)NC3=O)cc2)nc1 (stereo not drawn) [pioglitazone]
expression level of mRNA for progranulin in mesenteric fat tissue (MF) (progranulin (PGRN) mRNA; p<0.01 vs Vehicle): 0.42±0.11 times that of the control group | expression level of mRNA for progranulin in epididymal fat tissue (EF) (progranulin (PGRN) mRNA; p<0.05 vs Vehicle): 0.74±0.06 times that of the control group | expression level of mRNA for progranulin in subcutaneous adipose tissue (SC) (white adipose tissue (WAT)) (progranulin (PGRN) mRNA; p<0.05 vs Vehicle): 0.61±0.07 times that of the control group | serum progranulin concentration (progranulin (PGRN)): 1.86 ± 0.10 µg/mL

TNF-α
expression level of progranulin (cultured adipocytes): increased

B1: progranulin protein: granulin precursor protein having seven kinds of granulin domains; insulin resistance marker (protein)
chain: MWTLVSWVALTAGLVAGTRCPDGQFCPVACCLDPGGASYSCCRPLLDKWPTTLSRHLGGPCQVDAHCSAGHSCIFTVSGTSSCCPFPEAVACGDGHHCCPRGFHCSADGRSCFQRSGNNSVGAIQCPDSQFECPDFSTCCVMVDGSWGCCPMPQASCCEDRVHCCPHGAFCDLVHTRCITPTGTHPLAKKLPAQRTNRAVALSSSVMCPDARSRCPDGSTCCELPSGKYGCCPMPNATCCSDHLHCCPQDTVCDLIQSKCLSKENATTDLLTKLPAHTVGDVKCDMEVSCPDGYTCCRLQSGAWGCCPFTQAVCCEDHIHCCPAGFTCDTQKGTCEQGPHQVPWMEKAPAHLSLPDPQALKRDVPCDNVSSCPSSDTCCQLTSGEWGCCPIPEAVCCSDHQHCCPQGYTCVAEGQCQRGSEIVAGLEKMPARRASLSHPRDIGCDQHTSCPVGQTCCPSLGGSWACCQLPHAVCCEDRQHCCPAGYTCNVKARSCEKEVVSAQPATFLARSPHVGVKDVECGEGHFCHDNQTCCRDNRQGWACCPYRQGVCCADRRHCCPAGFRCAARGTKCLRREAPRWDAPLRDPALRQLL
modifications: human
notes: granulin precursor protein having seven kinds of granulin domains; insulin resistance marker
activity of Akt protein activated downstream of an insulin receptor (Akt protein): significantly suppressed
